Data published in patent publication US8921403B2, “Combinations of imazalil and hydroxypyridones” (Janssen Pharmaceutica, NV, priority 2007, dated 2014).

Test system: Staphylococcus aureus (g+) LMG 8064
Experiment: poison plate assay (bacteria)
Type: cell-based
Conditions: LMG8064, 120 h, ppm total active ingredient, Tryptose Agar, 27° C., 70% relative humidity, growth evaluated after five days, ratio % (I) + % (II-a), read-out: MIC-values (minimum inhibitory concentration) in ppm
From the text: When the Synergy Index is greater than 1.0, antagonism is indicated. When the SI is equal to 1.0, additivity is indicated.

Compound: C=CCOC(Cn1ccnc1)c1ccc(Cl)cc1Cl (stereo not shown) [100 + 0]
- MIC: 25 µg/mL
